Assays:
[1] = Clearance of 125I-sCT from the intramuscular or subcutaneous site of injection; type: in vivo, Sprague-Dawley rats; conditions: free drug, FIG. 2/3
Description: The rate of clearance of sCT from a given liposome furmulation was determined by monitoring the clearance of ^125 I-sCT from the intramuscular site of injection. Salmon calcitonin was spiked with ^1251 -sCT and encapsulated in MLVs as described in Example I in such a way that after the removal of non-liposome associated drug, the injection sample contained about 10,000 cpm of ^125 I per injection.
Male Sprague-Dawley rats weighing 95 to 100 g were lightly anesthetized with ether, and 20 ul or 100 ul of the ^125 I-sCT liposome samples were injected either in the lower part of the forelimbs or the hindlimbs respectively. Sixteen to twenty rats were used in each experiment. […] At each time point, two rats were anesthetized for blood sampling (two ml blood were drawn and counted for ^125 I radioactivity). […] The limbs were inserted into tubes and then counted for remaining radioactivity in a gamma counter. The eight to ten time points shown in FIG. 2 were selected so that the half-life of clearance from the IM site could be determined by a semi-log plot of the radioactivity remaining versus time after injection as shown in FIG. 3. […]
The urine and feces from the two rats kept in metabolic cages throughout the experiment were collected and counted for radioactivity. […]

[2] = Plasma levels of immunoreactive sCT (radio-immunoassay) after IM injection; type: in vivo, rats; conditions: 1 ug
Description: Rats weighing 95 to 105 gm were injected intramuscularly in the forelimbs with sCT or sCT-MLVs. At each time point, four rats were bled by cardiac puncture and the blood collected in pre-chilled EDTA containing tubes. The plasma was collected after centrifugation at 4° C. and quickly frozen. The frozen samples were sent to Hazleton Laboratories for sCT radio-immunoassay (RIA). […] Thus, sCT-MLVs injected intramuscularly can achieve prolonged delivery to the systemic circulation.

[3] = Apparent first order absorption rate constant of gentamicin from urinary excretion after IM injection; conditions: lipid dose 0 umol/inj.
Description: The gentamicin concentration in the liposomes formulation was determined by the EMIT assay (Syva, Palo Alto, CA) after lysis in triton X-100.
Therefore, the apparent absorption rate constant, Ka, was estimated with the urinary excretion.
One group of four rats was immediately placed in metabolic cages (one rat per cage) and urine was collected at 24 hour intervals for the duration of the experiment. Cages were rinsed with distilled water after each collection and the volume of the pooled urine and rinses were recorded. An aliquot of each sample was frozen until assay.

For `CC(C)C[C@H](NC(=O)[C@H](CCCCN)NC(=O)CNC(=O)[C@H](CC(C)C)NC(=O)[C@@H](NC(=O)[C@@H]1CSSC[C@H](N)C(=O)N[C@@H](CO)C(=O)N[C@@H](CC(N)=O)C(=O)N[C@@H](CC(C)C)C(=O)N[C@@H](CO)C(=O)N[C@@H]([C@@H](C)O)C(=O)N1)C(C)C)C(=O)N[C@@H](CO)C(=O)N[C@@H](CCC(N)=O)C(=O)N[C@@H](CCC(=O)O)C(=O)N[C@@H](CC(C)C)C(=O)N[C@@H](Cc1c[nH]cn1)C(=O)N[C@@H](CCCCN)C(=O)N[C@@H](CC(C)C)C(=O)N[C@@H](CCC(N)=O)C(=O)N[C@H](C(=O)N[C@@H](Cc1ccc(O)cc1)C(=O)N1CCC[C@H]1C(=O)N[C@@H](CCCNC(=N)N)C(=O)N[C@H](C(=O)N[C@@H](CC(N)=O)C(=O)N[C@H](C(=O)NCC(=O)N[C@@H](CO)C(=O)NCC(=O)N[C@H](C(=O)N1CCC[C@H]1C(N)=O)[C@@H](C)O)[C@@H](C)O)[C@@H](C)O)[C@@H](C)O` [F-sCT, Salmon calcitonin], the “clearance half-life from the site of IM injection” value [1] was “a few minutes” and the “plasma immunoreactive sCT in circulation” value [2] was “rapidly disappeared from circulation”.

With gentamicin [Gentamicin solution] the “Rate Const. Ka (apparent first order absorption rate constant)” value [3] was 5.3 h⁻¹.

— patent US5023087A, “Efficient method for preparation of prolonged release liposome-based drug delivery system” (Liposome Technology, Inc., priority 1989, dated 1991)
